Results as given in patent US20130281449A1, “Oxazine Derivatives and their Use in the Treatment of Neurological Disorders” (NOVARTIS AG, priority 2011, published 2013).
Where a name gives a salt, the structure may show the parent alone.

How the values were obtained:
[1] = tested on: Cellular Release of Amyloid Peptide 1-40; assay: Test 4: Inhibition of Cellular Release of Amyloid Peptide 1-40; assay type: cell-based, Chinese hamster; details: Cricetulus griseus, 24 h; read-out: Amyloid-β1-40 release IC50
Procedure: Chinese hamster ovary cells are transfected with the human gene for amyloid precursor protein. The cells are plated at a density of 8000 cells/well into 96-well microtiter plates and cultivated for 24 hours in DMEM cell culture medium containing 10% FCS. The test compound is added to the cells at various concentrations, and the cells are cultivated for 24 hours in the presence of the test compound. […] The potency of the compound is calculated from the percentage of inhibition of amyloid peptide release as a function of the test compound concentration.

[2] = molecular target: Human BACE-1 (Homo sapiens, UniProt P56817); assay: Test 1: Inhibition of Human BACE-1; assay type: biochemical; details: mean IC50 values in Test 1; recombinant BACE-1, pH 4.5
Human BACE-1, sequence (P56817 46-457 limits assumed): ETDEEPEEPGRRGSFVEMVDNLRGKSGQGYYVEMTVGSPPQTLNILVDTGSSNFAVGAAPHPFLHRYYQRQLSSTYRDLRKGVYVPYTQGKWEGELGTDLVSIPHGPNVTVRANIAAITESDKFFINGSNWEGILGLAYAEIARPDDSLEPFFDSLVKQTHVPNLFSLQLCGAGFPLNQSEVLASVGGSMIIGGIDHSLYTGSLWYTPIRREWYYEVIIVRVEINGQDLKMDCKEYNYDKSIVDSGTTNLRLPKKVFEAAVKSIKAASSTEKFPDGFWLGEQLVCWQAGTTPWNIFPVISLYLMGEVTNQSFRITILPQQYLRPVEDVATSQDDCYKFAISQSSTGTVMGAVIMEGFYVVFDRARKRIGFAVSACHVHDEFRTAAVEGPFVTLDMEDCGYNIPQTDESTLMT
Procedure: Test 1: Inhibition of Human BACE-1
IC50 values are calculated from percentage of inhibition of BACE-1 activity as a function of the test compound concentration.

SMILES | IC50 [1] [nM] | IC50 [2] [nM]
Cc1cc(C(F)F)cnc1C(=O)Nc1ccc(F)c([C@]2(C)CO[C@@](C)(C(F)(F)F)C(N)=N2)c1 [Example 27, 5-Difluoromethyl-3-methyl-pyridine-2-carboxylic acid [3-((3R,6R)-5-amino-3,6-dimethyl-6-trifluoromethyl-3,6-dihydro-2H-[1,4]oxazin-3-yl)-4-fluoro-phenyl]-amide hydrochloride] | 10 | 16
N#Cc1cnc(C(=O)Nc2ccc(F)c([C@]3(C(F)F)COCC(N)=N3)c2)c(N)c1 [Example 11, 3-Amino-5-cyano-pyridine-2-carboxylic acid [3-((R)-5-amino-3-difluoromethyl-3,6-dihydro-2H-[1,4]oxazin-3-yl)-4-fluoro-phenyl]-amide] | 5 | 18
C#CCOc1cnc(C(=O)Nc2ccc(F)c([C@]3(C(F)F)COCC(N)=N3)c2)c(N)n1 [Example 4, 3-Amino-5-prop-2-ynyloxy-pyrazine-2-carboxylic acid [3-((R)-5-amino-3-difluoromethyl-3,6-dihydro-2H-[1,4]oxazin-3-yl)-4-fluoro-phenyl]-amide] | 1 | 2
Cc1cc(C#N)cnc1C(=O)Nc1cc(F)c(F)c([C@]2(C(F)F)COCC(N)=N2)c1 [Example 14, 5-Cyano-3-methyl-pyridine-2-carboxylic acid [3-((R)-5-amino-3-difluoromethyl-3,6-dihydro-2H-[1,4]oxazin-3-yl)-4,5-difluoro-phenyl]-amide] | 9 | 20
Cc1cc(F)cnc1C(=O)Nc1ccc(F)c([C@]2(C)CO[C@@](C)(C(F)(F)F)C(N)=N2)c1 [Example 35, 5-Fluoro-3-methyl-pyridine-2-carboxylic acid [3-((3R,6R)-5-amino-3,6-dimethyl-6-trifluoro-methyl-3,6-dihydro-2H-[1,4]oxazin-3-yl)-4-fluoro-phenyl]-amide] | 88 | 
C#CCOc1cnc(C(=O)Nc2ccc(F)c([C@]3(C)CO[C@@](C)(C(F)(F)F)C(N)=N3)c2)c(N)n1 [Example 25, 3-Amino-5-prop-2-ynyloxy-pyrazine-2-carboxylic acid [3-((3R,6R)-5-amino-3,6-dimethyl-6-trifluoromethyl-3,6-dihydro-2H-[1,4]oxazin-3-yl)-4-fluoro-phenyl]-amide] | 1 | 1
NC1=N[C@@](c2cc(NC(=O)c3ncc(C(F)F)cc3N)ccc2F)(C(F)F)COC1 [Example 12, 3-Amino-5-difluoromethyl-pyridine-2-carboxylic acid [3-((R)-5-amino-3-difluoromethyl-3,6-dihydro-2H-[1,4]oxazin-3-yl)-4-fluorophenyl]-amide] | 10 | 38
C[C@@]1(c2cc(NC(=O)c3ncc(C(F)F)cc3N)ccc2F)CO[C@@](C)(C(F)(F)F)C(N)=N1 [Example 29, 3-Amino-5-difluoromethyl-pyridine-2-carboxylic acid [3-((3R,6R)-5-amino-3,6-dimethyl-6-trifluoromethyl-3,6-dihydro-2H-[1,4]oxazin-3-yl)-4-fluoro-phenyl]-amide] | 10 | 14
[2H]C([2H])([2H])OCc1cc(OC([2H])([2H])[2H])cnc1C(=O)Nc1ccc(F)c([C@]2(C(F)F)COCC(N)=N2)c1 [Example 10, 5-Trideuteromethoxy-3-trideuteromethoxymethyl-pyridine-2-carboxylic acid [3-((R)-5-amino-3-difluoromethyl-3,6-dihydro-2H-[1,4]oxazin-3-yl)-4-fluoro-phenyl]-amide] | 32 | 190
COc1cc(C(F)F)c(C(=O)Nc2ccc(F)c([C@]3(C)CO[C@@](C)(C(F)(F)F)C(N)=N3)c2)nn1 [Example 30, 4-Difluoromethyl-6-methoxy-pyridazine-3-carboxylic acid [3-((3R,6R)-5-amino-3,6-dimethyl-6-trifluoromethyl-3,6-dihydro-2H-[1,4]oxazin-3-yl)-4-fluoro-phenyl]-amide hydrochloride] | 62 | 150
[2H]C([2H])([2H])Oc1cnc(C(=O)Nc2ccc(F)c([C@]3(C(F)F)COCC(N)=N3)c2)c(C)c1 [Example 13, 5-Trideuteromethoxy-3-methyl-pyridine-2-carboxylic acid [3-((R)-5-amino-3-difluoromethyl-3,6-dihydro-2H-[1,4]oxazin-3-yl)-4-fluoro-phenyl]-amide] | 22 | 110
Cc1cc(C#N)cnc1C(=O)Nc1ccc(F)c(C2(C)COC(CF)(CF)C(N)=N2)c1 (racemic) [Example 37, 5-Cyano-3-methyl-pyridine-2-carboxylic acid [3-(5-amino-6,6-bis-fluoromethyl-3-methyl-3,6-dihydro-2H-[1,4]oxazin-3-yl)-4-fluoro-phenyl]-amide] | 4 | 

The next lines start with the values.

IC50 [1] [nM] | IC50 [2] [nM] | SMILES
13 | 12 | Cc1cc(C#N)cnc1C(=O)Nc1ccc(F)c([C@]2(CF)COC(CF)(CF)C(N)=N2)c1 [Example 42, 5-Cyano-3-methyl-pyridine-2-carboxylic acid [3-((R)-5-amino-3,6,6-tris-fluoromethyl-3,6-dihydro-2H-[1,4]oxazin-3-yl)-4-fluoro-phenyl]-amide]
11 | 32 | N#Cc1cnc(C(=O)Nc2ccc(F)c([C@]3(C(F)F)COCC(N)=N3)c2)c(Cl)c1 [Example 2, 3-Chloro-5-cyano-pyridine-2-carboxylic acid [3-((R)-5-amino-3-difluoromethyl-3,6-dihydro-2H-[1,4]oxazin-3-yl)-4-fluoro-phenyl]-amide]
9 | 12 | C[C@@]1(c2cc(NC(=O)c3ncc(Cl)cc3F)ccc2F)CO[C@@](C)(C(F)(F)F)C(N)=N1 [Example 21, 5-Chloro-3-fluoro-pyridine-2-carboxylic acid [3-((3R,6R)-5-amino-3,6-dimethyl-6-trifluoromethyl-3,6-dihydro2H-[1,4]oxazin-3-yl)-4-fluoro-phenyl]-amide hydrochloride]
4 | 9 | C[C@@]1(c2cc(NC(=O)c3ncc(C#N)cc3Cl)ccc2F)CO[C@@](C)(C(F)(F)F)C(N)=N1 [Example 17, 3-Chloro-5-cyano-pyridine-2-carboxylic acid [3-((3R,6R)-5-amino-3,6-dimethyl-6-trifluoromethyl-3,6-dihydro-2H-[1,4]oxazin-3-yl)-4-fluoro-phenyl]-amide hydrochloride]
21 | 32 | [2H]C([2H])([2H])Oc1cnc(C(=O)Nc2cc(F)c(F)c([C@]3(C(F)F)COCC(N)=N3)c2)c(Cl)c1 [Example 15, 3-Chloro-5-trideuteromethoxy-pyridine-2-carboxylic acid [3-((R)-5-amino-3-difluoromethyl-3,6-dihydro-2H-[1,4]oxazin-3-yl)-4,5-difluoro-phenyl]-amide]
11 | 130 | COc1cnc(C(=O)Nc2ccc(F)c([C@]3(C(F)F)COCC(N)=N3)c2)c(C)c1 [Example 7, 5-Methoxy-3-methyl-pyridine-2-carboxylic acid [3-((R)-5-amino-3-difluoromethyl-3,6-dihydro-2H-[1,4]oxazin-3-yl)-4-fluoro-phenyl]-amide hydrochloride]
